The text below walks through data of patent publication US7381540B2, “Composition for measuring glucose having improved substrate specificity” (Toyo Boseki Kabushiki Kaisha, priority 2005, dated 2008).

Molecules are shown by their SMILES.

Assay [1] concerns modified PQQGDH. Put plainly: Substrate specificity using glucose assay system (ferricyanide reduction, absorbance 420 nm). It is filed as biochemical. The settings on record: for activity with respect to maltose compared with the control (in words): substrate concentration of 4.8 mM, in some cases. How it is done:
D-glucose+ferricyanide ion+PQQGDH D-glucono-1,5-lactone+ferrocyanide ion
Specificity to each substrate can be determined by changing D-glucose to other saccharides. The presence of the ferrocyanide ion produced by reduction of the ferricyanide ion was confirmed by measuring the decrease of absorbance at a wavelength of 420 nm by spectrophotometry.
A. […]
B. Potassium ferricyanide solution: 50 mM (0.165 g potassium ferricyanide (molecular weight: 329.25) dissolved in 10 ml of distilled water)
C. PQQGDH solution: 31000 U/ml (approx. 128 mg PQQGDH (Toyobo: GLD-331) dissolved in 5 ml of distilled water)
D. Substrate solution (D-glucose solution or maltose solution): 100 or 400 mM
• 1. The following reaction mixture was prepared in a light shielding bottle, and stored on ice (prepared at use). 48.2 mL of each buffer solution (pH6.5) (A) • 4.0 mL of potassium ferricyanide solution (B) • 0.19 mL of (C) • 2. 2.65 ml of the reaction mixture and 0.3 ml of additive were placed in a test tube (plastic) and pre-warmed for 5 minutes at 37° C. • 3. 0.15 ml of substrate solution (D) were added and mixed gently. • 4. The reduction in the absorbance relative to water at 420 nm was recorded for 1 to 3 minutes with a spectrophotometer while maintaining at a temperature of 37° C., and the ΔOD per minute was calculated from the initial linear portion of the curve (ΔOD test). At the same time, the same procedure was carried out with the exception of adding distilled water instead of glucose solution followed by measurement of the blank (ΔOD blank).
The above-mentioned procedure was carried out at each of the predetermined concentrations shown in Tables 1 to 3 using as additives succinic acid, adipic acid, suberic acid, pimeric acid, potassium chloride, ammonium chloride, diammonium hydrogen citrate, malonic acid, L-lysine, taurine, 3,3-dimethylglutaric acid, malic acid, glutaric acid, calcium glycerate, amino-n-butyric acid, sodium glycolate, sodium α-ketoglutarate, fumaric acid, glycerin, glutamic acid and serine. And the procedure was also carried out for those not containing additives to assess the effects of additives.
Variation in absorbance per unit time was determined by calculating ΔOD/min(ΔOD test−ΔOD blank)
To evaluate whether activity had declined with respect to sugars other than glucose, the ΔOD/min (a) with D-glucose as the substrate solution and the ΔOD/min (b) with the other sugar in place of D-glucose as the substrate solution were measured, and the relative value ((b)/(a)×100) was calculated given 100 as the measurement value with glucose as the substrate.
In each of Tables 3 to 5, in the case the value of the ratio of measured values of maltose and glucose (maltose/glucose) relative to the control (control: no addition) is small, activity with respect to maltose during glucose measurement decreases.

Assay [2] relates to modified PQQGDH. The assay can be described thus: Maltose activity of glucose electrode loaded with modified PQQGDH (oxidation current, potassium ferricyanide mediator). It is filed as biochemical, Acinetobacter baumannii strain NCIMB11517. The settings on record: solute 50 mM, pH 5.5; glucose or maltose 4 mM; 0.1 M potassium ferricyanide; +0.35 V; 25° C. As for the experimental part:
0.5 g of carbon graphite were placed in a mortar followed by the addition of 0.3 ml of liquid paraffin and kneading with a pestle for 30 minutes to produce a carbon paste. The resulting carbon paste was spread onto a platinum electrode followed by the addition of 10 μl of the modified PQQGDH solution (2,000 U/ml) produced in Example 2 and air drying for 30 minutes at room temperature. A cut cellulose semi-permeable membrane (molecular weight: 8,000) was placed over the dried enzyme electrode and the semi-permeable membrane was immobilized with plastic O-rings. The glucose electrode produced in this manner was then used after preliminarily immersing in the cold reaction solvent for 30 minutes.
The substances listed in Table 1 were used as solutes, and buffers were respectively prepared having a final concentration of 50 mM (pH 5.5). Each of the solvents contained an activator/stabilizer in the form of calcium chloride at 1 mM and surfactant in the form of 0.1% Triton X-100 in addition to the solute listed in Table 1. Potassium ferricyanide was dissolved in each of the produced solvents to a concentration of 0.1 M to prepare reaction solutions.
50 mM phosphoric acid or pimeric acid solution containing 1 mM calcium chloride and 0.1% Triton X-100 (consisting of three types having pH values of 5.0, 6.0 and 7.0, respectively) were prepared. Maltose activity of the glucose electrode was investigated for each according to the method of Example 5.

The test system of assay [3] is modified PQQGDH. The assay can be described thus: Substrate specificity using glucose assay system (ferricyanide reduction, absorbance 420 nm). It counts as biochemical. The settings on record: potassium phosphate buffer pH 7.0.
Where [4] appears, read: glutaric acid buffer pH 7.0, reagent 0.1%, substrate 4.8 mM, control 0.86.
Where [5] appears, read: glutaric acid buffer pH 7.0, reagent 0.1%, substrate 19.2 mM, control 0.94.
Setting [6] is: glutaric acid buffer pH 7.0, reagent 1%, substrate 4.8 mM, control 0.86.
The mark [7] stands for this setting: glutaric acid buffer pH 7.0, reagent 1%, substrate 19.2 mM, control 0.94.
Where [8] appears, read: phthalic acid buffer pH 7.0, reagent 0.05%, substrate 4.8 mM, control 0.72.
Setting [9] is: phthalic acid buffer pH 7.0, reagent 0.05%, substrate 19.2 mM, control 0.75.
Where [10] appears, read: phthalic acid buffer pH 7.0, reagent 0.1%, substrate 4.8 mM, control 0.72.
[11] abbreviates: phthalic acid buffer pH 7.0, reagent 0.1%, substrate 19.2 mM, control 0.75.
[12] abbreviates: phthalic acid buffer pH 7.0, reagent 0.2%, substrate 4.8 mM, control 0.72.
Where [13] appears, read: phthalic acid buffer pH 7.0, reagent 0.2%, substrate 19.2 mM, control 0.75.
Setting [14] is: potassium phosphate buffer pH 7.0, reagent 0.5%, substrate 19.2 mM, control 0.93.
Where [15] appears, read: potassium phosphate buffer pH 7.0, reagent 1%, substrate 19.2 mM, control 0.93.
Setting [16] is: reagent 0.5%, substrate 4.8 mM, control 0.85.
Setting [17] is: reagent 1%, substrate 4.8 mM, control 0.85.
Where [18] appears, read: reagent 2%, substrate 4.8 mM, control 0.85.
Where [19] appears, read: reagent 2%, substrate 19.2 mM, control 0.93.

Consider `O=C(O)CCC(=O)O` [Succinic acid], for which the Maltose/glucose ratio in assay [1] (setting [4]) was found to be 0.55; in assay [1] (setting [5]) it was 0.75; in assay [1] (setting [6]), 0.35; in assay [1] (setting [7]), 0.52; in assay [1] (setting [8]), 0.65; in assay [1] (setting [9]) it was 0.56. Also, the Maltose/glucose ratio in assay [1] (setting [10]) worked out at 0.73; in assay [1] (setting [11]), 0.57; in assay [1] (setting [12]) it was 0.77; in assay [1] (setting [13]), 0.60; in assay [1] (setting [14]), 0.84; in assay [1] (setting [15]), 0.62. Besides, the Maltose/glucose ratio in assay [3] (setting [16]) is listed as 0.65; in assay [3] (setting [17]), 0.47; in assay [3] (setting [18]), 0.34; in assay [3] (setting [19]), 0.45. Further, in assay [1], the “activity with respect to maltose compared with the control (in words)” value is “did not decrease”. Moreover, the “Maltose Activity (%)” value in assay [2] is 22.5%.

As to `CC(C)(CC(=O)O)CC(=O)O` [3,3-dimethylglutaric acid], the Maltose/glucose ratio in assay [1] (setting [4]) is recorded as 0.56; in assay [1] (setting [5]), 0.76; in assay [1] (setting [6]), 0.37; in assay [1] (setting [7]), 0.47; in assay [1] (setting [14]), 0.82; in assay [1] (setting [15]) it was 0.64. In addition, the Maltose/glucose ratio is on record as 0.60 in assay [3] (setting [16]), 0.44 in assay [3] (setting [17]), 0.41 in assay [3] (setting [18]) and 0.49 in assay [3] (setting [19]). For the same compound, the “Maltose Activity (%)” value in assay [2] was 14.9%.

In the case of `O=C(O)CCCCCCC(=O)O` [Suberic acid], the Maltose/glucose ratio in assay [1] (glutaric acid buffer pH 7.0, reagent 0.03%, substrate 4.8 mM, control 0.86) is on record as 0.68; in assay [1] (glutaric acid buffer pH 7.0, reagent 0.03%, substrate 19.2 mM, control 0.94), 0.86; in assay [1] (glutaric acid buffer pH 7.0, reagent 0.33%, substrate 4.8 mM, control 0.86), 0.38; in assay [1] (glutaric acid buffer pH 7.0, reagent 0.33%, substrate 19.2 mM, control 0.94) it was 0.49; in assay [1] (phthalic acid buffer pH 7.0, reagent 0.017%, substrate 4.8 mM, control 0.72) it was 0.66; in assay [1] (phthalic acid buffer pH 7.0, reagent 0.017%, substrate 19.2 mM, control 0.75) it was 0.69. Besides, the Maltose/glucose ratio in assay [1] (phthalic acid buffer pH 7.0, reagent 0.033%, substrate 4.8 mM, control 0.72) stood at 0.67; in assay [1] (phthalic acid buffer pH 7.0, reagent 0.033%, substrate 19.2 mM, control 0.75), 0.62; in assay [1] (phthalic acid buffer pH 7.0, reagent 0.066%, substrate 4.8 mM, control 0.72), 0.70; in assay [1] (phthalic acid buffer pH 7.0, reagent 0.066%, substrate 19.2 mM, control 0.75) it was 0.55. Also, in assay [2], the “Maltose Activity (%)” value was 20.2%.

For the compound `O=C(O)CCCCC(=O)O` [Adipic acid], the Maltose/glucose ratio in assay [1] (setting [4]) came to 0.73; in assay [1] (setting [5]), 0.84; in assay [1] (setting [6]), 0.43; in assay [1] (setting [7]), 0.67; in assay [1] (setting [8]) it was 0.66; in assay [1] (setting [9]), 0.68. In addition, the Maltose/glucose ratio in assay [1] (setting [10]) is 0.65; in assay [1] (setting [11]) it was 0.64; in assay [1] (setting [12]), 0.65; in assay [1] (setting [13]), 0.58. For the same compound, the “Maltose Activity (%)” value in assay [2] was determined as 20.7%.

As for `O=C(O)CC(=O)O` [Malonic acid], the Maltose/glucose ratio in assay [1] (setting [6]) is listed as 0.68; in assay [1] (setting [7]), 0.84; in assay [1] (phthalic acid buffer pH 7.0, reagent 0.5%, substrate 4.8 mM, control 0.72), 0.74; in assay [1] (phthalic acid buffer pH 7.0, reagent 0.5%, substrate 19.2 mM, control 0.75), 0.58; in assay [1] (phthalic acid buffer pH 7.0, reagent 1%, substrate 4.8 mM, control 0.72), 0.77; in assay [1] (phthalic acid buffer pH 7.0, reagent 1%, substrate 19.2 mM, control 0.75), 0.57. The Maltose/glucose ratio turned out to be 0.82 in assay [1] (phthalic acid buffer pH 7.0, reagent 2%, substrate 4.8 mM, control 0.72) and 0.63 in assay [1] (phthalic acid buffer pH 7.0, reagent 2%, substrate 19.2 mM, control 0.75). Besides, the “activity with respect to maltose compared with the control (in words)” value in assay [1] is recorded as “did not decrease”. Moreover, the “Maltose Activity (%)” value in assay [2] was 23.2%.
